Patent US20190375708A1 (VenatoRx Pharmaceuticals, Inc., priority 2018, published 2019)

Assays:
[1] = In vitro cytotoxicity assay (MTT cell viability) in HepG2 cells; assay type: cell-based, human; conditions: human
Procedure, shortened: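 HepG2 seeded overnight, then 7-day compound exposure (30 μM–1.0 nM, half-log steps), 37 °C. MTT 3-4 h, DMSO solubilization, A492. % of vehicle → CC50, 4-PL fit.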

[2] = test system: HBV replication in HepAD38 cells; assay: Anti-HBV replication assay in HepAD38 cells (QPCR of extracellular HBV DNA); assay type: cell-based, HBV (genotype D, serotype ayw); conditions: Hepatitis B virus, 168 h, 7 days incubation, extracellular HBV DNA by QPCR, read-out: Anti-HBV EC50
Procedure, shortened: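 Tet-off HepAD38, 7-day compound exposure ([…], 1 log10 steps, DMSO vehicle), 37 °C. Extracellular HBV DNA by QPCR, copies/mL via standard curve, % inhibition vs vehicle, EC50 by 4-parameter regression. Entecavir as positive control.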

Compound | CC50 at 7 days [1] [µM] | EC50 [2] [µM]
Cc1c(C(=O)Nc2ccc(F)c(F)c2)c2n(c1C(=O)C(=O)NCc1cnc(N)s1)CCCC2 [Example 455, 3-(2-(((2-aminothiazol-5-yl)methyl)amino)-2-oxoacetyl)-N-(3,4-difluorophenyl)-2-methyl-5,6,7,8-tetrahydroindolizine-1-carboxamide] | 5 to 30 | < 0.05
Cc1c(C(=O)Nc2ccc(F)c(F)c2)c2n(c1C(=O)C(=O)N[C@H]1C[C@H](O)C1)CCCC2 [Example 456, N-(3,4-difluorophenyl)-3-(2-(((1r,3r)-3-hydroxycyclobutyl)amino)-2-oxoacetyl)-2-methyl-5,6,7,8-tetrahydroindolizine-1-carboxamide] | > 30 | 0.5 to 1
Cc1c(C(=O)Nc2ccc(F)c(F)c2)c2n(c1C(=O)C(=O)N[C@H]1COC[C@@H]1O)CCCC2 [Example 457, N-(3,4-difluorophenyl)-3-(2-(((3S,4R)-4-hydroxytetrahydrofuran-3-yl)amino)-2-oxoacetyl)-2-methyl-5,6,7,8-tettrahydroindolizine-1-carboxamide] | > 30 | 0.05 to 0.499
Cc1c(C(=O)Nc2ccc(F)c(F)c2)c2n(c1C(=O)C(=O)N[C@H]1CCC[C@H]1O)CCCC2 [Example 458, N-(3,4-difluorophenyl)-3-(2-(((1S,2R)-2-hydroxycyclopentyl)amino)-2-oxoacetyl)-2-methyl-5,6,7,8-tetrahydroindolizine-1-carboxamide] | 5 to 30 | 0.5 to 1
Cc1c(C(=O)Nc2ccc(F)c(F)c2)c2n(c1C(=O)C(=O)NC1(CO)CC(F)(F)C1)CCCC2 [Example 459, 3-(2-((3,3-difluoro-1-(hydroxymethyl)cyclobutyl)amino)-2-oxoacetyl)-N-(3,4-difluorophenyl)-2-methyl-5,6,7,8-tetrahydroindolizine-1-carboxamide] | 5 to 30 | 0.05 to 0.499
Cc1c(C(=O)Nc2ccc(F)c(F)c2)c2n(c1C(=O)C(=O)NC1(CO)CCC1)CCCC2 [Example 460, N-(3,4-difluorophenyl)-3-(2-((1-(hydroxymethyl)cyclobutyl)amino)-2-oxoacetyl)-2-methyl-5,6,7,8-tetrahydroindoline-1-carboxamide] | 5 to 30 | < 0.05
Cc1c(C(=O)Nc2ccc(F)c(F)c2)c2n(c1C(=O)C(=O)NCC(C)(C)CO)CCCC2 [Example 461, N-(3,4-difluorophenyl)-3-(2-((3-hydroxy-2,2-dimethylpropyl)amino)-2-oxoacetyl)-2-methyl-5,6,7,8-tetrahydroindolizine-1-carboxamide] | 5 to 30 | < 0.05
Cc1c(C(=O)Nc2ccc(F)c(F)c2)c2n(c1C(=O)C(=O)NCC(C)(C)O)CCCC2 [Example 462, N-(3,4-difluorophenyl)-3-(2-((2-hydroxy-2-methylpropyl)amino)-2-oxoacetyl)-2-methyl-5,6,7,8-tetrahydroindolizine--1 carboxamide] | > 30 | 0.05 to 0.499
Cc1c(C(=O)Nc2ccc(F)c(F)c2)c2n(c1C(=O)C(=O)NC1(CO)CC1)CCCC2 [Example 463, N-(3,4-difluorophenyl)-3-(2-((1-(hydroxymethyl)cyclopropyl)amino)-2-oxoacetyl)-2-methyl-5,6,7,8-tetrahydroindolizine-1-carboxamide] | 5 to 30 | 0.05 to 0.499
Cc1noc([C@H](C)NC(=O)C(=O)c2c(C)c(C(=O)Nc3ccc(F)c(F)c3)c3n2CCCC3)n1 [Example 464, (S)-N-(3,4-difluorophenyl)-2-methyl-3-(2-((1-(3-methyl-1,2,4-oxadiazol-5-yl)ethyl)amino)-2-oxoacetyl)-5,6,7,8-tetrahydroindolizine-1-carboxamide] | > 30 | 0.05 to 0.499
Cc1c(C(=O)Nc2ccc(F)c(Cl)c2)c2n(c1C(=O)C(=O)NC1(CO)CC(F)(F)C1)CCCC2 [Example 465, N-(3-chloro-4-fluorophenyl)-3-(2-((3,3-difluoro-1-(hydroxymethyl)cyclobutyl)amino)-2-oxoacetyl)-2-methyl-5,,6,7,8-tetrahydroindolizine-1-carboxamide] | 5 to 30 | < 0.05
Cc1c(C(=O)Nc2ccc(F)c(Cl)c2)c2n(c1C(=O)C(=O)NCC(C)(C)CO)CCCC2 [Example 466, N-(3-chloro-4-fluorophenyl)-3-(2-((3-hydroxy-2,2-dimethylpropyl)amino)-2-oxoacetyl)-2-methyl-5,6,7,8-tetrahydroindolizine-1-carboxamide] | > 30 | 0.05 to 0.499
Cc1c(C(=O)Nc2ccc(F)c(Cl)c2)c2n(c1C(=O)C(=O)NCC(C)(C)O)CCCC2 [Example 467, N-(3-chloro-4-fluorophenyl)-3-(2-((2-hydroxy-2-methylpropyl)amino)-2-oxoacetyl)-2-methyl-5,6,7,8-tetrahydroindolizine-1-carboxamide] | > 30 | 0.5 to 1
Cc1cc(NC(=O)c2c(C)c(C(=O)C(=O)NC(C)(C)C(F)(F)F)n3c2CCCC3)cnc1F [Example 468, N-(6-fluoro-5-methylpyridin-3-yl)-2-methyl-3-(2-oxo-2-((1,1,1-trifluoro-2-methylpropan-2-yl)amino)acetyl)-5,6,7,8-tetrahydroindolizine-1-carboxamide] | > 30 | 0.05 to 0.499
Cc1cc(NC(=O)c2c(C)c(C(=O)C(=O)N[C@H](C)C(F)(F)F)n3c2CCCC3)cnc1F [Example 469, (R)-N-(6-fluoro-5-methylpyridin-3-yl)-2-methyl-3-(2-oxo-2-((1,1,1-trifluoropropan-2-yl)amino)acetyl)-5,6,7,8-tetrahydroindolizine-1-carboxamide] | 5 to 30 | 0.5 to 1
Cc1cc(NC(=O)c2c(C)c(C(=O)C(=O)N[C@@H](C)C(F)(F)F)n3c2CCCC3)cnc1F [Example 470, (S)-N-(6-fluoro-5-methylpyridin-3-yl)-2-methyl-3-(2-oxo-2-((1,1,1-trifluoropropan-2-yl)amino)acetyl)-5,6,7,8-tetrahydroindolizine--1 carboxamide] | 5 to 30 | 0.5 to 1
Cc1noc([C@H](C)NC(=O)C(=O)c2c(C)c(C(=O)Nc3cnc(F)c(C)c3)c3n2CCCC3)n1 [Example 471, (S)-N-(6-fluoro-5-methylpyridin-3-yl)-2-methyl-3-(2-((1-(3-methyl-1,2,4-oxadiazol-5-yl)ethyl)amino)-2-oxoacetyl)-5,6,7,8-tetrahydroindolizine-1-carboxamide] | > 30 | 0.5 to 1
Cc1noc([C@@H](C)NC(=O)C(=O)c2c(C)c(C(=O)Nc3cnc(F)c(C)c3)c3n2CCCC3)n1 [Example 472, (R)-N-(6-fluoro-5-methylpyridin-3-yl)-2-methyl-3-(2-((1-(3-methyl-1,2,4-oxadiazol-5-yl)ethyl)amino)-2-oxoacetyl)-5,6,7,8-tetrahydroindolizine-1-carboxamide] | > 30 | > 1
Cc1cc(NC(=O)c2c(C)c(C(=O)C(=O)NCc3cnc(N)s3)n3c2CCCC3)cnc1F [Example 473, 3-(2-(((2-aminothiazol-5-yl)methyl)amino)-2-oxoacetyl)-N-(6-ffluoro-5-methylpyridin-3-yl)-2-methyl-5,,6,7,8-tetrahydroindolizine--1 carboxamide] | > 30 | 0.5 to 1
Cc1cc(NC(=O)c2c(C)c(C(=O)C(=O)NC3(CO)CC(F)(F)C3)n3c2CCCC3)cnc1F [Example 474, 3-(2-((3,3-difluoro-1-(hydroxymethyl)cyclobutyl)amino)-2-oxoacetyl)-N-(6-fluoro-5-methylpyridin-3-yl)-2-methyl-5,6,7,8-tetrahydroindolizine-1-ccarboxamide] | > 30 | 0.5 to 1
CC[C@H](C)NC(=O)C(=O)c1c(C)c(C(=O)Nc2cnc(F)c(C)c2)c2n1CCCC2 [Example 475, (S)-3-(2-(sec-butylamino)-2-oxoacetyl)-N-(6-fluoro-5-methylpyridin-3-yl)-2-methyl-5,6,7,8-tetrahydroindolizine-1-carboxamide] | > 30 | 0.5 to 1
Cc1cc(NC(=O)c2c(C)c(C(=O)C(=O)NCC(C)(C)CO)n3c2CCCC3)cnc1F [Example 476, N-(6-fluoro-5-methylpyridin-3-yl)-3-(2-((3-hydroxy-2,2-dimethylpropyl)amino)-2-oxoacetyl)-2-methyl-5,6,7,8-tetrahydroindolizine-1-carboxamide] | 5 to 30 | > 1
Cc1cc(NC(=O)c2c(C)c(C(=O)C(=O)NCC(C)(C)O)n3c2CCCC3)cnc1F [Example 477, N-(6-fluoro-5-methylpyridin-3-yl)-3-(2-((2-hydroxy-2-methylpropyl)amino)-2-oxoacetyl)-2-methyl-5,6,7,8-tetrahydroindolizine-1-carboxamide] | > 30 | > 1
Cc1cc(NC(=O)c2c(C)c(C(=O)C(=O)NC(C)(C)CO)n3c2CCCC3)cnc1F [Example 478, N-(6-fluoro-5-methylpyridin-3-yl)-3-(2-((1-hydroxy-2-methylpropan-2-yl)amino)-2-oxoacetyl)-2-methyl-5,6,7,8-tetrahydroindoliizine-1-carboxamide] | > 30 | > 1
Cc1cc(NC(=O)c2c(Cl)c(C(=O)C(=O)NC(C)(C)C)n3c2CCCC3)ccc1F [Example 489] | > 30 | < 0.05
Cc1cc(NC(=O)c2c(Cl)c(C(=O)C(=O)NC(C)(C)CO)n3c2CCCC3)ccc1F [Example 490, 2-chloro-N-(4-fluoro-3-methylphenyl)-3-(2-((1-hydroxy-2-methylpropan-2-yl)amino)-2-oxoacetyl)-5,6,7,8-tetrahydroindolizine-1-carboxamide] | > 30 | < 0.05
